According to patent publication US5573922A, “Immunological detection method for triazines” (Boehringer Mannheim GmbH, priority 1993, dated 1996):

Tested on: antiserum S 4612 (sheep antiserum against triazine)
Assay: Competitive ELISA, sheep triazine antiserum with heterologous POD conjugate atra(deethyl-4-ED)-SATP-PODp(MH)
Type: binding
Settings: 50 mU/ml, concentration at which signal is 80% of maximum signal
Procedure: 10 sheep are immunized with triazine immunogen according to example 1 in Freund's adjuvant. The dose is […] per animal. The immunizations are repeated over six months or longer, each at intervals of 4 weeks. Antiserum samples are taken from all animals once per month and examined for the presence of triazine antibodies. For this purpose a series of terbutylazine standards are measured in a competitive ELISA using the heterologous POD conjugate atra(deethyl-4-ED)-SATP-POD(MH) according to example 3. The procedure for this measurement is described in detail in example 5.
(§1) Microtitre plates (Maxisorp F96,Nunc Co. Order No. 4-42404) are coated with antibodies against the Fc part of sheep IgG which have been obtained by immunosorptive purification of the IgG fraction from donkey antiserum. The donkey antibody is dissolved in the coating buffer at a concentration of 10 µg/ml protein and 100 μl of this solution is pipetted into each well of the microtitre plate. After incubating for 1 hour at room temperature while shaking, the solution is discarded and the plate is washed three times with washing solution.
(§2) Sheep antiserum against triazine is diluted 1:50,000 with incubation buffer. Each well of the microtitre plate is coated with 100 μl of the diluted solution. During the incubation period (1 hour, conditions as above) the IgG molecules from the sheep serum bind to the donkey antibodies bound to the wall. They are subsequently washed as above.
A series of solutions is prepared which contain terbutylazine at concentrations of 1000/500/250/125/62.5/31/16/8/4/0 ng/l as well as the conjugate atra(deethyl-4-ED)-SATP-PODp(MH) according to the invention at a standard concentration of 50 mU/ml in the incubation buffer.
Dilution series of other triazines are prepared in a similar manner with maximum concentrations of […] (atrazine, cyanazine and desethylterbutylazine), 10,000 ng/l (propazine, simazine, desethylatrazine) and 100,000 ng/l (desisopropylatrazine) and dilution steps of 1:2 which also contain the said hapten-POD conjugate.
(§3) The wells of the microtitre plate which were precoated as previously described, are filled with these solutions (100 μl in each case), incubated for 1 hour and subsequently washed as described.
(§4) The free hapten molecules compete with the hapten-POD conjugate for the limited amount of hapten-specific antibodies on the wall of the wells. The less conjugate is bound the more free hapten is present in the solution and the better the hapten is recognized by the antibodies.
(§5) Every well is filled with 100 μl substrate solution and incubated while shaking until the colour development in the samples without hapten appears subjectively to be high enough. Then the absorbance in all wells is determined as a differential measurement at the wavelengths 405/492 nm.
(§6) In the graph of the measured signal as a function of the hapten concentration used, the "relative affinity", i.e. the hapten concentration whose measured signal is half the size of the maximum signal (at a hapten concentration of 0), is determined for each triazine compound. In this process a linear interpolation is made between selected measurement points on the curve. This gives the cross-reaction of the triazines in relation to terbutylazine as the quotient [formula]
(§7) The "lower limit of detection" is determined in an analogous manner for each triazine compound as the concentration at which the measured signal is 80% of the maximum signal.

Row | Structure (SMILES) | lower detection limit
1 | CCNc1nc(Cl)nc(NCC)n1 [simazine] | 60 ng/L
2 | CC(C)Nc1nc(N)nc(Cl)n1 [desethylatrazine] | 90 ng/L
3 | CCNc1nc(Cl)nc(NC(C)(C)C#N)n1 [cyanazine] | 10 ng/L
4 | CCNc1nc(Cl)nc(NC(C)(C)C)n1 [terbutylazine] | 12 ng/L
5 | CC(C)Nc1nc(Cl)nc(NC(C)C)n1 [propazine] | 24 ng/L
6 | CCNc1nc(Cl)nc(NC(C)C)n1 [atrazine] | 17 ng/L
7 | CC(C)(C)Nc1nc(N)nc(Cl)n1 [desethylterbutylazine] | 10 ng/L

Same assay, conditions: 50 mU/ml, relative to terbutylazine (quotient of hapten concentrations at half maximum signal)

Row | Structure (SMILES) | cross reaction (%)
8 | CCNc1nc(Cl)nc(NCC)n1 [simazine] | 10%
9 | CC(C)Nc1nc(N)nc(Cl)n1 [desethylatrazine] | 7%
10 | CCNc1nc(Cl)nc(NC(C)(C)C#N)n1 [cyanazine] | 102%
11 | CCNc1nc(Cl)nc(NC(C)(C)C)n1 [terbutylazine] | 100%
12 | CC(C)Nc1nc(Cl)nc(NC(C)C)n1 [propazine] | 26%
13 | CCNc1nc(Cl)nc(NC(C)C)n1 [atrazine] | 73%
14 | CC(C)(C)Nc1nc(N)nc(Cl)n1 [desethylterbutylazine] | 102%

Tested on: antiserum S 4612 (sheep antiserum against triazine)
Assay: Competitive ELISA, sheep triazine antiserum with homologous POD conjugate atra(terbutyl-6ah)-OSu-POD
Type: binding
Settings: 30 mU/ml, concentration at which signal is 80% of maximum signal
Procedure: as §1, §2, §3, §4, §5, §6, §7
In a second experiment the cross reaction and the lower limit of detection for each of the above-mentioned triazines is determined in an analogous manner using the homologous conjugate atra(terbutyl-6ah)-OSu-POD. In this case the POD concentration is 30 mU/ml. The highest hapten concentrations are 10,000 ng/l for terbutylazine and 100,000 ng/l for all triazines.
Eight further hapten concentrations are prepared by serial dilution of these solutions in a ratio of 1:2 and a blank value without triazine is determined in each case.

Row | Structure (SMILES) | lower detection limit | lower detection limit (ng/l)
15 | CCNc1nc(Cl)nc(NCC)n1 [simazine] | 4.100 ng/L | 
16 | CC(C)Nc1nc(N)nc(Cl)n1 [desethylatrazine] |  | 9,500 ng/l
17 | CCNc1nc(Cl)nc(NC(C)(C)C#N)n1 [cyanazine] | 310 ng/L | 
18 | CCNc1nc(Cl)nc(NC(C)(C)C)n1 [terbutylazine] | 100 ng/L | 
19 | CC(C)Nc1nc(Cl)nc(NC(C)C)n1 [propazine] | 620 ng/L | 
20 | CCNc1nc(Cl)nc(NC(C)C)n1 [atrazine] |  | 1,600 ng/l
21 | CC(C)(C)Nc1nc(N)nc(Cl)n1 [desethylterbutylazine] | 430 ng/L | 

Same assay, conditions: 30 mU/ml, relative to terbutylazine (quotient of hapten concentrations at half maximum signal)

Row | Structure (SMILES) | cross reaction (%)
22 | CCNc1nc(Cl)nc(NCC)n1 [simazine] | 0.9%
23 | CC(C)Nc1nc(N)nc(Cl)n1 [desethylatrazine] | < 0.3%
24 | CCNc1nc(Cl)nc(NC(C)(C)C#N)n1 [cyanazine] | 11%
25 | CCNc1nc(Cl)nc(NC(C)(C)C)n1 [terbutylazine] | 100%
26 | CC(C)Nc1nc(Cl)nc(NC(C)C)n1 [propazine] | 8%
27 | CCNc1nc(Cl)nc(NC(C)C)n1 [atrazine] | 4%
28 | CC(C)(C)Nc1nc(N)nc(Cl)n1 [desethylterbutylazine] | 9%
